Laboratory results as given in publication PMC11864979, “First-in-class ultralong-target-residence-time p38α inhibitors as a mitosis-targeted therapy for colorectal cancer” (Nature Cancer, 2025).
Several values for one entry are separate records, joined by “and”; a condition that tells them apart may be missing. Equal entries are not always repeated. Where two headings read alike, the source gives them in different places.

Legend:
[1] = tested on: HT-29; test: cell viability in human CRC cell line HT-29; assay type: cell-based; settings: Homo sapiens, ED Fig. 9h, replicates, read-out: HT-29 Cell viability (%); for viability at 0.3704 µM: HT-29, 0.3704 µM; for viability at 1.1111 µM: HT-29, 1.1111 µM; for viability at 3.3333 µM: HT-29, 3.3333 µM; for viability at 10 µM: HT-29, 10.0000 µM
Experimental: (§1) To generate KAP^2D cells, KAP organoids were isolated from Matrigel, fragmented by mechanical dissociation and plated without any extracellular matrix on common cell culture dishes. Phoenix-Eco packaging cells (CRL-3214), HCT-15 (CCL-225), HCT 116 (CCL-247), COLO 205 (CCL-222), LS 174T (CL-188), RKO (CRL-2577) and HT-29 (HTB-38) were obtained from the American Type Culture Collection. The cells were cultured at 37 °C and 7% CO2 with RPMI (KAP^2D cells) or DMEM (other cell lines), supplemented with 10% FBS and penicillin–streptomycin. KAP^2D cells were authenticated using PCR (Kras locus and Trp53 locus). Phoenix-Eco packaging cells and HCT-15, HCT 116, COLO 205, LS 174T, RKO and HT-29 cells were authenticated by the provider using short tandem repeat profiling. No commonly misidentified cell lines were used. Mycoplasma contamination was excluded by a PCR-based analysis.
(§2) For in vitro treatment studies, organoids were mechanically dissociated and digested using TrypLE supplemented with 100 µg ml^−1 DNaseI and 10.5 µM Y-27632 dihydrochloride (Invitrogen) at 37 °C. A total of 1,000–2,000 single cells were plated per well in white 96-well plates (Greiner) in culture medium containing 10% GFR Matrigel or Cultrex BME. The treatment with doxycycline (5 µg ml^−1), pharmacological inhibitors or corresponding volumes of DMSO was started 24 h after plating. Doxycycline was obtained from Sigma-Aldrich. […] Cell viability was measured by means of CellTiter-Glo 3D or CellTiter-Glo 2.0 reagent (Promega) according to the manufacturers’ instructions and the Infinite M Plex reader (Tecan, i-control version 3.9.1 software). Results were normalized to vehicle (DMSO) or to shNC. For cell-doubling assays, the cell number was quantified at the corresponding time points using Guava EasyCyte flow cytometer (Luminex, CytoSoft v5.2 software).

[2] = tested on: PDO6; test: cell viability in patient-derived CRC organoids PDO6; assay type: cell-based, human
Experimental: as §2

[3] = tested on: PDO15; test: cell viability in patient-derived CRC organoids PDO15; assay type: cell-based, human
Experimental: as §2

[4] = tested on: RKO; test: cell viability in human CRC cell line RKO; assay type: cell-based; settings: ED Fig. 9g, replicates
Experimental: as §1, §2

[5] = tested on: PDO7; test: cell viability in patient-derived CRC organoids PDO7; assay type: cell-based, human
Experimental: as §2

SMILES: O=C(NCCN1CCOCC1)c1ccc2c(c1)C(=O)c1ccc(Nc3ccc(F)c(NC(=O)c4ccccc4)c3)cc1CC2 [Compound 1639]
- viability at 0.1235 µM ([1]; HT-29, 0.1235 µM, first experiment): 88.1%
- viability at 0.3704 µM ([1]; Repetition): 95.8%
- viability at 0.3704 µM ([1]; first experiment): 88.9%
- viability at 1.1111 µM ([1]; Repetition): 88.5%
- viability at 1.1111 µM ([1]; first experiment): 92.4%
- viability at 3.3333 µM ([1]; Repetition): 52.9%
- viability at 3.3333 µM ([1]; first experiment): 70.7%
- viability at 10 µM ([1]; Repetition): 3.22%
- viability at 10 µM ([1]; first experiment): 4.71%
- viability at 1 µM ([2]; Homo sapiens, 96 h, PDO6, 1 µM, 4 days, read-out: Cell viability (%)): 88.1%
- Cell viability (%) ([2]; PDO6, 0.5 µM, 4 d, 0.5 µM): 89.33% and 120.75% and 95.55%
- Cell viability (%) ([2]; PDO6, 1 µM, 4 days, 1 µM): 103.21% and 96.02%
- viability at 0.5 µM ([3]; Homo sapiens, 96 h, PDO15, 0.5 µM, 4 d, read-out: Cell viability (%)): 101%
- viability at 1 µM ([3]; Homo sapiens, 96 h, PDO15, 1 µM, 4 days, read-out: Cell viability (%)): 87.7%
- Cell viability (%) ([3]; PDO15, 0.5 µM, 4 d, 0.5 µM): 102.64% and 92.86%
- Cell viability (%) ([3]; PDO15, 1 µM, 4 days, 1 µM): 91.79% and 86.01%
- RKO Cell viability (%) ([4]; 0.0137 µM, Repetition): 124.75% and 148.62% and 118.75%
- RKO Cell viability (%) ([4]; 0.0137 µM, first experiment): 98.53% and 90.98%
- RKO Cell viability (%) ([4]; 0.0412 µM, Repetition): 93.50% and 149.21% and 112.61%
- RKO Cell viability (%) ([4]; 0.0412 µM, first experiment): 86.59% and 83.94%
- RKO Cell viability (%) ([4]; 0.1235 µM, Repetition): 125.44% and 110.57%
- RKO Cell viability (%) ([4]; 0.1235 µM, first experiment): 85.12% and 86.17%
- RKO Cell viability (%) ([4]; 0.3704 µM, Repetition): 111.28% and 89.40%
- RKO Cell viability (%) ([4]; 0.3704 µM, first experiment): 77.62% and 74.11%
- RKO Cell viability (%) ([4]; 1.1111 µM, Repetition): 109.66% and 139.17% and 117.64%
- RKO Cell viability (%) ([4]; 1.1111 µM, first experiment): 95.27% and 88.88%
- RKO Cell viability (%) ([4]; 3.3333 µM, Repetition): 74.32% and 93.61% and 73.54%
- RKO Cell viability (%) ([4]; 3.3333 µM, first experiment): 74.12% and 74.43%
- RKO Cell viability (%) ([4]; 10.0000 µM, Repetition): 42.39% and 44.96%
- RKO Cell viability (%) ([4]; 10.0000 µM, first experiment): 30.57% and 37.00%
- viability at 0.0137 µM ([4]; Homo sapiens, RKO, 0.0137 µM, first experiment, read-out: RKO Cell viability (%)): 96.7%
- viability at 0.0412 µM ([4]; Homo sapiens, RKO, 0.0412 µM, first experiment, read-out: RKO Cell viability (%)): 88.2%
- viability at 0.1235 µM ([4]; Homo sapiens, RKO, 0.1235 µM, Repetition, read-out: RKO Cell viability (%)): 111%
- viability at 0.1235 µM ([4]; Homo sapiens, RKO, 0.1235 µM, first experiment, read-out: RKO Cell viability (%)): 82.2%
- viability at 0.3704 µM ([4]; Homo sapiens, RKO, 0.3704 µM, first experiment, read-out: RKO Cell viability (%)): 86%
- viability at 1.1111 µM ([4]; Homo sapiens, RKO, 1.1111 µM, first experiment, read-out: RKO Cell viability (%)): 85.9%
- viability at 3.3333 µM ([4]; Homo sapiens, RKO, 3.3333 µM, first experiment, read-out: RKO Cell viability (%)): 75%
- viability at 10 µM ([4]; Homo sapiens, RKO, 10.0000 µM, Repetition, read-out: RKO Cell viability (%)): 43.1%
- viability at 10 µM ([4]; Homo sapiens, RKO, 10.0000 µM, first experiment, read-out: RKO Cell viability (%)): 31.2%
- viability at 1 µM ([5]; Homo sapiens, 96 h, PDO7, 1 µM, 4 days, read-out: Cell viability (%)): 103%
- Cell viability (%) ([5]; PDO7, 0.5 µM, 4 d, 0.5 µM): 99.28% and 131.17% and 112.30%
- Cell viability (%) ([5]; PDO7, 1 µM, 4 days, 1 µM): 115.94% and 100.13%
